Measurements taken from US20230085307A1, “PYRIDAZINONE COMPOUND AND HERBICIDE” (NISSAN CHEMICAL CORPORATION, priority 2019, published 2023).

Legend:
[1] = test system: Japanese bulrush; assay: Test Example 1: herbicidal activity, application before weed generation under submerged conditions (Table 16, symbol B); assay type: in vivo, Japanese bulrush (Schoenoplectus juncoides); conditions: 320 g/ha applied herbicide
Outline: (§1)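 Alluvial soil was flooded to 4 cm depth, weed seeds were sown mixed and 2.5-leaf rice seedlings were transplanted. On sowing day, the compound's emulsion, diluted in water to a set dose, was applied to the water surface. Plants grew at 25–30 °C and were scored 0–5 after three weeks.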

[2] = test system: oval-leafed pondweed; assay: Test Example 1: herbicidal activity, application before weed generation under submerged conditions (Table 16, symbol C); assay type: in vivo, oval-leafed pondweed (Monochoria vaginalis); conditions: 320 g/ha applied herbicide
Outline: as §1

[3] = test system: late watergrass; assay: Test Example 2: herbicidal activity, application during weed generation under submerged conditions (Table 17, symbol A); assay type: in vivo, late watergrass (Echinochloa oryzicola); conditions: AAH 320 g/ha; application during weed generation, submerged conditions
Outline: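 Mixed weed seedlings in alluvial soil under a 4 cm water layer, greenhouse-grown at 25–30° C. Compound given as a diluted emulsion into the floodwater at the 1–2 leaf stage; response graded after three weeks.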

[4] = test system: barnyard grass; assay: Test Example 3: herbicidal effect by foliage application, Wagner pot (Table 18, symbol H); assay type: in vivo, barnyard grass (Echinochloa crus-galli); conditions: for herbicidal effect on H: barnyard grass: amount of applied herbicide 320 g/ha; for herbicidal effect on H (barnyard grass), rating 0-5: 320 g/ha
Outline: (§2)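 Plants were sown in alluvial soil held under 0.1–0.5 cm standing water and grown 14 days in a greenhouse at 25–30 °C. An emulsifiable formulation, water-diluted to the set dose, was then sprayed onto the foliage, and effects were scored three weeks later using previously defined criteria.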

[5] = test system: Chinese sprangletop; assay: Test Example 3: herbicidal effect by foliage application, Wagner pot (Table 18, symbol D); assay type: in vivo, chinese sprangletop (Leptochloa chinensis); conditions: for herbicidal effect on D: Chinese sprangletop: amount of applied herbicide 320 g/ha; for herbicidal effect on D (Chinese sprangletop), rating 0-5: 320 g/ha
Outline: as §2

[6] = test system: barnyard grass; assay: Test Example 4: herbicidal effect by soil treatment (Table 19, symbol H); assay type: in vivo, barnyard grass (Echinochloa crus-galli)
Outline: (§3)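 Scoring uses the grading scale of an earlier test, three weeks post-application. Treatment consists of spraying a diluted emulsion formulation across the surface of sterilized diluvial soil in which seeds are buried near 1.5 cm deep; boxes are kept in a greenhouse between 25° C. and 30° C.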

[7] = test system: windgrass; assay: Test Example 4: herbicidal effect by soil treatment (Table 19, symbol L); assay type: in vivo, windgrass (Apera spica-venti)
Outline: as §3

[8] = test system: velvetleaf; assay: Test Example 4: herbicidal effect by soil treatment (Table 19, symbol M); assay type: in vivo, velvetleaf (Abutilon theophrasti)
Outline: as §3

[9] = test system: lambsquarters; assay: Test Example 4: herbicidal effect by soil treatment (Table 19, symbol O); assay type: in vivo, lambsquarters (Chenopodium album)
Outline: as §3

[10] = test system: persian speedwell; assay: Test Example 4: herbicidal effect by soil treatment (Table 19, symbol R); assay type: in vivo, Persian speedwell (Veronica persica)
Outline: as §3

[11] = test system: barnyard grass; assay: Test Example 5: herbicidal effect by foliage application, plastic box (Table 20, symbol H); assay type: in vivo, barnyard grass (Echinochloa crus-galli); conditions: foliage application
Outline: (§4)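 Post-emergence foliar test in sterilized diluvial soil. Compound applied as water-diluted emulsion at a predetermined rate to 14-day-old plants; evaluation at three weeks.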

[12] = test system: blackgrass; assay: Test Example 5: herbicidal effect by foliage application, plastic box (Table 20, symbol J); assay type: in vivo, blackgrass (Alopecurus myosuroides); conditions: foliage application
Outline: as §4

[13] = test system: Italian ryegrass; assay: Test Example 5: herbicidal effect by foliage application, plastic box (Table 20, symbol K); assay type: in vivo, Italian ryegrass (Lolium multiflorum); conditions: foliage application
Outline: as §4

[14] = test system: velvetleaf; assay: Test Example 5: herbicidal effect by foliage application, plastic box (Table 20, symbol M); assay type: in vivo, velvetleaf (Abutilon theophrasti); conditions: foliage application
Outline: as §4

[15] = test system: redroot pigweed; assay: Test Example 5: herbicidal effect by foliage application, plastic box (Table 20, symbol N); assay type: in vivo, redroot pigweed (Amaranthus retroflexus); conditions: foliage application
Outline: as §4

[16] = test system: lambsquarters; assay: Test Example 5: herbicidal effect by foliage application, plastic box (Table 20, symbol O); assay type: in vivo, lambsquarters (Chenopodium album); conditions: foliage application
Outline: as §4

[17] = amount of applied herbicide 320 g/ha
[18] = 320 g/ha, evaluated three weeks after application
[19] = AAH 320 g/ha, three weeks after application
[20] = 320 g/ha, three weeks after application
[21] = AAH 320 g/ha, evaluated three weeks after application

## Cc1nn(C)c(=O)c(-c2c(-c3ccc(OC4CC4)cc3)sc3ccc(F)cc23)c1O [2-217]
[1]
  Herbicidal effect on B: Japanese bulrush (grade 0-5): 5 (Herbicidal rate of 90% or more (almost completely withered))
[2]
  Herbicidal effect on C: oval-leafed pondweed (grade 0-5): 4 (Herbicidal rate of 70% or more and less than 90%)
[3]
  herbicidal effect rating, A: late watergrass: 3 (Herbicidal rate of 40% or more and less than 70%)
[4]
  herbicidal effect on H: barnyard grass: 5 (Herbicidal rate of 90% or more (almost completely withered))
[5]
  herbicidal effect on D: Chinese sprangletop: 5 (Herbicidal rate of 90% or more (almost completely withered))
[6]; [17]
  H: barnyard grass, herbicidal effect rating: 5 (Herbicidal rate of 90% or more (almost completely withered))
[7]; [17]
  L: windgrass, herbicidal effect rating: 0 (Herbicidal rate of 5% or less (almost no effect))
[8]; [17]
  M: velvetleaf, herbicidal effect rating: 1 (Herbicidal rate of 5% or more and less than 20%)
[9]; [17]
  O: lambsquarters, herbicidal effect rating: 4 (Herbicidal rate of 70% or more and less than 90%)
[10]; [17]
  R: persian speedwell, herbicidal effect rating: 4 (Herbicidal rate of 70% or more and less than 90%)
[11]; [18]
  herbicidal effect on H: barnyard grass (criteria 0-5): 5 (Herbicidal rate of 90% or more (almost completely withered))
[12]; [18]
  herbicidal effect on J: blackgrass (criteria 0-5): 1 (Herbicidal rate of 5% or more and less than 20%)
[13]; [18]
  herbicidal effect on K: Italian ryegrass (criteria 0-5): 5 (Herbicidal rate of 90% or more (almost completely withered))
[14]; [18]
  herbicidal effect on M: velvetleaf (criteria 0-5): 5 (Herbicidal rate of 90% or more (almost completely withered))
[15]; [18]
  herbicidal effect on N: redroot pigweed (criteria 0-5): 5 (Herbicidal rate of 90% or more (almost completely withered))
[16]; [18]
  herbicidal effect on O: lambsquarters (criteria 0-5): 4 (Herbicidal rate of 70% or more and less than 90%)

## COc1ccccc1-c1sc2ccc(Cl)cc2c1-c1c(O)c(C)nn(C)c1=O [2-101]
[1]
  Herbicidal effect on B: Japanese bulrush (grade 0-5): 3 (Herbicidal rate of 40% or more and less than 70%)
[2]
  Herbicidal effect on C: oval-leafed pondweed (grade 0-5): 3 (Herbicidal rate of 40% or more and less than 70%)
[3]
  herbicidal effect rating, A: late watergrass: 0 (Herbicidal rate of 5% or less (almost no effect))
[4]
  herbicidal effect on H (barnyard grass), rating 0-5: 4 (Herbicidal rate of 70% or more and less than 90%)
[5]
  herbicidal effect on D (Chinese sprangletop), rating 0-5: 0 (Herbicidal rate of 5% or less (almost no effect))
[6]; [17]
  H: barnyard grass, herbicidal effect rating: 3 (Herbicidal rate of 40% or more and less than 70%)
[7]; [17]
  L: windgrass, herbicidal effect rating: 0 (Herbicidal rate of 5% or less (almost no effect))
[8]; [17]
  M: velvetleaf, herbicidal effect rating: 3 (Herbicidal rate of 40% or more and less than 70%)
[9]; [17]
  O: lambsquarters, herbicidal effect rating: 4 (Herbicidal rate of 70% or more and less than 90%)
[10]; [17]
  R: persian speedwell, herbicidal effect rating: 4 (Herbicidal rate of 70% or more and less than 90%)
[11]; [18]
  herbicidal effect on H: barnyard grass: 3 (Herbicidal rate of 40% or more and less than 70%)
[12]; [18]
  herbicidal effect on J: blackgrass: 5 (Herbicidal rate of 90% or more (almost completely withered))
[13]; [18]
  herbicidal effect on K: Italian ryegrass: 4 (Herbicidal rate of 70% or more and less than 90%)
[14]; [18]
  herbicidal effect on M: velvetleaf: 5 (Herbicidal rate of 90% or more (almost completely withered))
[15]; [18]
  herbicidal effect on N: redroot pigweed: 5 (Herbicidal rate of 90% or more (almost completely withered))
[16]; [18]
  herbicidal effect on O: lambsquarters: 5 (Herbicidal rate of 90% or more (almost completely withered))

## Cc1nn(C)c(=O)c(-c2c(-c3ccc([N+](=O)[O-])cc3)sc3ccccc23)c1O [1-151]
[1]
  Herbicidal effect on B: Japanese bulrush (grade 0-5): 3 (Herbicidal rate of 40% or more and less than 70%)
[2]
  Herbicidal effect on C: oval-leafed pondweed (grade 0-5): 3 (Herbicidal rate of 40% or more and less than 70%)
[3]
  herbicidal effect rating, A: late watergrass: 0 (Herbicidal rate of 5% or less (almost no effect))
[4]
  herbicidal effect on H (barnyard grass), rating 0-5: 4 (Herbicidal rate of 70% or more and less than 90%)
[5]
  herbicidal effect on D (Chinese sprangletop), rating 0-5: 3 (Herbicidal rate of 40% or more and less than 70%)
[6]; AAH 320 g/ha
  H: barnyard grass, herbicidal effect rating: 0 (Herbicidal rate of 5% or less (almost no effect))
[7]; AAH 320 g/ha
  L: windgrass, herbicidal effect rating: 0 (Herbicidal rate of 5% or less (almost no effect))
[8]; AAH 320 g/ha
  M: velvetleaf, herbicidal effect rating: 0 (Herbicidal rate of 5% or less (almost no effect))
[9]; AAH 320 g/ha
  O: lambsquarters, herbicidal effect rating: 2 (Herbicidal rate of 20% or more and less than 40%)
[10]; AAH 320 g/ha
  R: persian speedwell, herbicidal effect rating: 5 (Herbicidal rate of 90% or more (almost completely withered))
[11]; [19]
  H: barnyard grass, herbicidal effect: 3 (Herbicidal rate of 40% or more and less than 70%)
[12]; [19]
  J: blackgrass, herbicidal effect: 0 (Herbicidal rate of 5% or less (almost no effect))
[13]; [19]
  K: Italian ryegrass, herbicidal effect: 5 (Herbicidal rate of 90% or more (almost completely withered))
[14]; [19]
  M: velvetleaf, herbicidal effect: 5 (Herbicidal rate of 90% or more (almost completely withered))
[15]; [19]
  N: redroot pigweed, herbicidal effect: 5 (Herbicidal rate of 90% or more (almost completely withered))
[16]; [19]
  O: lambsquarters, herbicidal effect: 5 (Herbicidal rate of 90% or more (almost completely withered))

## CCCC(=O)Oc1c(C)nn(C)c(=O)c1-c1c(-c2ccc(OC(C)C)cc2)sc2ccccc12 [1-021]
[1]
  Herbicidal effect on B: Japanese bulrush (grade 0-5): 5 (Herbicidal rate of 90% or more (almost completely withered))
[2]
  Herbicidal effect on C: oval-leafed pondweed (grade 0-5): 4 (Herbicidal rate of 70% or more and less than 90%)
[3]
  herbicidal effect rating, A: late watergrass: 2 (Herbicidal rate of 20% or more and less than 40%)
[4]
  herbicidal effect on H (barnyard grass), rating 0-5: 5 (Herbicidal rate of 90% or more (almost completely withered))
[5]
  herbicidal effect on D (Chinese sprangletop), rating 0-5: 1 (Herbicidal rate of 5% or more and less than 20%)
[6]; [17]
  herbicidal effect rating, H: barnyard grass: 0 (Herbicidal rate of 5% or less (almost no effect))
[7]; [17]
  herbicidal effect rating, L: windgrass: 0 (Herbicidal rate of 5% or less (almost no effect))
[8]; [17]
  herbicidal effect rating, M: velvetleaf: 3 (Herbicidal rate of 40% or more and less than 70%)
[9]; [17]
  herbicidal effect rating, O: lambsquarters: 0 (Herbicidal rate of 5% or less (almost no effect))
[10]; [17]
  herbicidal effect rating, R: persian speedwell: 5 (Herbicidal rate of 90% or more (almost completely withered))
[11]; [20]
  herbicidal effect grade, H: barnyard grass: 4 (Herbicidal rate of 70% or more and less than 90%)
[12]; [20]
  herbicidal effect grade, J: blackgrass: 1 (Herbicidal rate of 5% or more and less than 20%)
[13]; [20]
  herbicidal effect grade, K: Italian ryegrass: 3 (Herbicidal rate of 40% or more and less than 70%)
[14]; [20]
  herbicidal effect grade, M: velvetleaf: 3 (Herbicidal rate of 40% or more and less than 70%)
[15]; [20]
  herbicidal effect grade, N: redroot pigweed: 4 (Herbicidal rate of 70% or more and less than 90%)
[16]; [20]
  herbicidal effect grade, O: lambsquarters: 1 (Herbicidal rate of 5% or more and less than 20%)

## COCCSCc1ccc(-c2sc3ccc(F)cc3c2-c2c(O)c(C)nn(C)c2=O)cc1 [2-327]
[1]
  Herbicidal effect on B: Japanese bulrush (grade 0-5): 3 (Herbicidal rate of 40% or more and less than 70%)
[2]
  Herbicidal effect on C: oval-leafed pondweed (grade 0-5): 3 (Herbicidal rate of 40% or more and less than 70%)
[3]
  herbicidal effect rating, A: late watergrass: 0 (Herbicidal rate of 5% or less (almost no effect))
[4]
  herbicidal effect on H: barnyard grass: 5 (Herbicidal rate of 90% or more (almost completely withered))
[5]
  herbicidal effect on D: Chinese sprangletop: 3 (Herbicidal rate of 40% or more and less than 70%)
[6]; [17]
  herbicidal effect on H: barnyard grass: 3 (Herbicidal rate of 40% or more and less than 70%)
[7]; [17]
  herbicidal effect on L: windgrass: 0 (Herbicidal rate of 5% or less (almost no effect))
[8]; [17]
  herbicidal effect on M: velvetleaf: 1 (Herbicidal rate of 5% or more and less than 20%)
[9]; [17]
  herbicidal effect on O: lambsquarters: 4 (Herbicidal rate of 70% or more and less than 90%)
[10]; [17]
  herbicidal effect on R: persian speedwell: 5 (Herbicidal rate of 90% or more (almost completely withered))
[11]; [21]
  H: barnyard grass, herbicidal effect (criteria 0-5): 5 (Herbicidal rate of 90% or more (almost completely withered))
[12]; [21]
  J: blackgrass, herbicidal effect (criteria 0-5): 4 (Herbicidal rate of 70% or more and less than 90%)
[13]; [21]
  K: Italian ryegrass, herbicidal effect (criteria 0-5): 4 (Herbicidal rate of 70% or more and less than 90%)
[14]; [21]
  M: velvetleaf, herbicidal effect (criteria 0-5): 5 (Herbicidal rate of 90% or more (almost completely withered))
[15]; [21]
  N: redroot pigweed, herbicidal effect (criteria 0-5): 5 (Herbicidal rate of 90% or more (almost completely withered))
[16]; [21]
  O: lambsquarters, herbicidal effect (criteria 0-5): 5 (Herbicidal rate of 90% or more (almost completely withered))
